# Experiments:
# [1] = test system: Acinetobacter baumannii WX-AB005; assay: MIC test of compounds in combination with antibiotics, Acinetobacter baumannii WX-AB005; conditions: Acinetobacter baumannii WX-AB005
# Experimental: (§15) 2-Fold gradient dilution of antibiotics: 300 μL of CAMHVIB medium was added to columns 2-12 of a 96-deep well plate. In column 1, 24 μL of antibiotic stock solution and 576 µL of CAMHB medium were added and mixed well, with a concentration of 512 μg/mL. 300 µL of antibiotic solution was transferred from the column 1 to the second column and mixed well. The process was repeated until column 11, and the column 12 was a blank control.
# (§16) Dilution of combined compounds: the compound was diluted 400-fold to 32 μg/ml with CAMHB medium.
# (§17) Working solution aliquoting: 25 μL of antibiotics was aliquoted into the 96-U bottom plate with a pipette, and 25 μL of combined compound was added to each well. If antibiotics were used alone, 25 μL of CAMHB medium was added.
# (§18) Inoculum solution preparation: 5-6 single colonies were selected from the plate and suspended in normal saline. The bacterial suspension was adjusted to 0.2 (i.e., 0.5 McFarland turbidity, with a bacterial concentration was about 1 to 2×10^8 CFU/mL) with a turbidity meter. The bacterial suspension was diluted 100-fold with CAMHB medium for later use.
# (§19) Inoculation: 50 μL of inoculum solution was transferred to the above 50 μL compound plate with a pipette.
# (§20) Culture: The 96-U bottom plate was placed in an incubator at 37° C. for 18 to 20 h.
# [2] = test system: Acinetobacter baumannii ARLG-1852 OXA-23; assay: MIC test of compounds in combination with antibiotics, Acinetobacter baumannii ARLG-1852; conditions: Acinetobacter baumannii ARLG-1852 OXA-23
# Experimental: as §15, §16, §17, §18, §19, §20
# VIM-2 = target: T1, VIM-2 (Escherichia coli, UniProt Q5U7L7); assay: Enzyme activity test (FC5 fluorescent substrate), VIM-2; format: biochemical; conditions: enzyme 25 pM, substrate FC5 20 μM
# T1 construct: purchased GenScript Biotech Co., Ltd
# Experimental: (§1) Compound stock solution: the compound was prepared as a 50 mM DMSO stock solution. […] After aliquoting, the compound stock solutions were stored at −20° C.
# (§2) Preparation and storage of antibiotic substrate stock solution: antibiotic fluorescent substrate FC5 was synthesized internally and prepared as a 2 mM stock solution, which was stored at −20° C. after aliquoting.
# (§3) Storage of β-lactamases: each […] was synthesized by GenScript Biotech Co., Ltd., and stored at −80° C. after aliquoting to avoid repeated freezing and thawing.
# (§4) Preparation of enzyme activity reaction buffer: SBL buffer: PBS pH 7.4, 0.01% (v/v) Triton X-100; MBL buffer: 50 Mm HEPES in PBS pH 7.2, 1 μM ZnSO4, 1 μg/mL BSA, 0.010% v/v Triton X-100
# (§5) a) The compound to be tested and buffer were taken out and warmed to room temperature.
# (§6) b) Each compound was diluted with DMSO and buffer to the initial experimental concentration (Table 2), and then the compound was diluted 3-fold for a total of 10 concentrations.
# (§7) c) Diluted compounds were added to wells 1 to 20 of a 384-well black plate at 2 replicate wells per concentration, 5 μL per well. 5 µL of DMSO was added to wells 21 to 24.
# (§8) d) Each enzyme was diluted to the experimental concentration (Table 2) in SBL and MBL buffers, and finally 35 μL/well was added, with a total of 22 wells. 35 μL buffer was added to wells 23 to 24. Wells 21 to well 22 served as the maximum test values (Max), while wells 23 to 24 were designated as the minimum test values (Min).
# (§9) e) The 384-well plate was centrifuged quickly and incubated for 10 minutes at room temperature.
# (§10) f) The antibiotic substrate FC5 was diluted in buffer to the experimental concentration of each enzyme (Table 2).
# (§11) g) The incubated 384-well plate was taken out and FC-5 was added to wells […]. The 384-well plate was centrifuged rapidly and promptly transferred to a microplate reader for reading.
# (§12) h) The fluorescence intensity was measured at 355 nm excitation light/460 nm emission light in the microplate reader, and the fluorescence intensity was measured every three minutes for a total of 10 measurements.
# (§13) Initial velocity of enzyme reaction V: Subtract the background reading (Min wells) without enzyme from each fluorescence intensity reading, and then perform on a linear regression analysis on each compound concentration group. The slope is the initial velocity of enzyme reaction (V) at each compound concentration.
# (§14) Dose-effect curve and IC50 calculation of compounds: The initial velocity of enzyme reaction under the effect of each concentration of compounds was subjected to nonlinear regression fitting. The IC50 (half-maximal inhibitory concentration) of each compound was calculated using the formula […] (Vi: the initial velocity of enzyme reaction at each compound concentration; V0: initial velocity of enzyme reaction without the compound (Max wells). The software used was Graphpad prism 8.
# Ampc = Ampc (UniProt P24735); assay: Enzyme activity test (FC5 fluorescent substrate), AmpC; format: biochemical; conditions: enzyme 25 pM, substrate FC5 15 μM
# Experimental: as §1, §2, §3, §4, §5, §6, §7, §8, §9, §10, §11, §12, §13, §14
# [3] = test system: Acinetobacter baumannii WX-AB013; assay: MIC test of compounds in combination with antibiotics, Acinetobacter baumannii WX-AB013; conditions: Acinetobacter baumannii WX-AB013
# Experimental: as §15, §16, §17, §18, §19, §20
# [4] = test system: Acinetobacter baumannii ARLG-1809 OXA-23; assay: MIC test of compounds in combination with antibiotics, Acinetobacter baumannii ARLG-1809; conditions: Acinetobacter baumannii ARLG-1809 OXA-23
# Experimental: as §15, §16, §17, §18, §19, §20
# [5] = test system: Klebsiella pneumoniae ATCC BAA-1705; assay: MIC test of compounds in combination with antibiotics, Klebsiella pneumoniae ATCC BAA-1705; conditions: Klebsiella pneumoniae ATCC BAA-1705 KPC-2
# Experimental: Strain preparation: the strains to be tested were streaked from glycerol tube at −80° C. onto Mueller Hinton II Agar plates. The plates were then placed in a 37° C. incubator and cultured for 18-24 hours.
# Media preparation: CAMHB (Mueller Hinton II Broth): 22 g of powder was dissolved in 1 L of purified water and sterilized at 121° C. for 10 min for use. Saline: 8.5 g NaCl was dissolved in 1 L of pure water and sterilized at 121° C. for 30 min for use.
# Preparation of compound and antibiotic stock solutions: the compound and antibiotic were dissolved in DMSO or water to 12.8 mg/mL.
# as §15, §16, §17, §18, §19, §20
# After the incubation, bacterial growth was visually observed, and the test plate was photographed and recorded.
# OXA-23 = target: T2, OXA-23 (Acinetobacter baumannii, UniProt Q9L4P2); assay: Enzyme activity test (FC5 fluorescent substrate), OXA-23; format: biochemical; conditions: enzyme 650 pM, substrate FC5 50 μM
# T2 construct: purchased GenScript Biotech Co., Ltd
# Experimental: as §1, §2, §3, §4, §5, §6, §7, §8, §9, §10, §11, §12, §13, §14
# [6] = test system: carbapenem-resistant Acinetobacter baumannii strains; assay: MIC test of compounds in combination with antibiotics, resistant Acinetobacter baumannii strains; conditions: all resistant strains of Acinetobacter baumannii
# VIM-1 = target: T3, VIM-1 (Pseudomonas aeruginosa, UniProt A0A0F7KYQ8); assay: Enzyme activity test (FC5 fluorescent substrate), VIM-1; format: biochemical; conditions: enzyme 70 pM, substrate FC5 10 μM
# T3 construct: purchased GenScript Biotech Co., Ltd
# Experimental: as §1, §2, §3, §4, §5, §6, §7, §8, §9, §10, §11, §12, §13, §14
# [7] = test system: Klebsiella pneumoniae ATCC BAA-2470; assay: MIC test of compounds in combination with antibiotics, Klebsiella pneumoniae ATCC BAA-2470; conditions: Klebsiella pneumoniae ATCC BAA-2470 NDM-1
# CTX-M-15 = target: T4, CTX-M-15 (Escherichia coli, UniProt Q9EXV5); assay: Enzyme activity test (FC5 fluorescent substrate), CTX-M-15; format: biochemical; conditions: enzyme 45 pM, substrate FC5 50 μM
# T4 construct: purchased GenScript Biotech Co., Ltd
# Experimental: as §1, §2, §3, §4, §5, §6, §7, §8, §9, §10, §11, §12, §13, §14
# [8] = test system: Acinetobacter baumannii ARLG-1791 OXA-23; assay: MIC test of compounds in combination with antibiotics, Acinetobacter baumannii ARLG-1791; conditions: Acinetobacter baumannii ARLG-1791 OXA-23
# Experimental: as §15, §16, §17, §18, §19, §20
# OXA-10 = target: T5, OXA-10 (Pseudomonas aeruginosa, UniProt P14489); assay: Enzyme activity test (FC5 fluorescent substrate), OXA-10; format: biochemical; conditions: enzyme 350 pM, substrate FC5 50 μM
# T5 construct: purchased GenScript Biotech Co., Ltd
# Experimental: as §1, §2, §3, §4, §5, §6, §7, §8, §9, §10, §11, §12, §13, §14
# [9] = test system: Klebsiella pneumoniae ARLG 1196; assay: MIC test of compounds in combination with antibiotics, Klebsiella pneumoniae ARLG 1196; conditions: Klebsiella pneumoniae ARLG-1196 CTM-1 group, SHV, NDM, TEM
# T4 sequence (Q9EXV5 entry or part of it): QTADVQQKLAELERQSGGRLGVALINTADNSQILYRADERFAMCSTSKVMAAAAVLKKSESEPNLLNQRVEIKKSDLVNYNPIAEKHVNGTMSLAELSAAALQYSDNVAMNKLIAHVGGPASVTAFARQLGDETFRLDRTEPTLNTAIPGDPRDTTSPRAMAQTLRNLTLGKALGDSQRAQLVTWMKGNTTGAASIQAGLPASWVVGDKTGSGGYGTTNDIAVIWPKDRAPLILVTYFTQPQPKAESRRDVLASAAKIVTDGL
# T5 sequence (P14489 20-266): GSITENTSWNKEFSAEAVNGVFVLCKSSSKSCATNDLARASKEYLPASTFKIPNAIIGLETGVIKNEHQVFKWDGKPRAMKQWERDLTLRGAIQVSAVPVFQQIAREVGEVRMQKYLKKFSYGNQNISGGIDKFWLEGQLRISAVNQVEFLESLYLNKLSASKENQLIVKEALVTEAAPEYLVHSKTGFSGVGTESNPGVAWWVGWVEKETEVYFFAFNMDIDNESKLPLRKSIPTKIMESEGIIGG
# T2 sequence (Q9L4P2 18-273): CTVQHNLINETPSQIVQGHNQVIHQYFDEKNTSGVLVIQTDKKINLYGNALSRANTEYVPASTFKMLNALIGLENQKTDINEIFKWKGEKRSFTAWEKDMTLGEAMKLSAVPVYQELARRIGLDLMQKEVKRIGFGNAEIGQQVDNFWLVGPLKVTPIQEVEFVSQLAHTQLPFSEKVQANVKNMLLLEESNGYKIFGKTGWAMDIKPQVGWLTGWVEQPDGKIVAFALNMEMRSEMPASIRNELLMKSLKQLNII
smiles,measurement,setting,value
"NCCNC1CCC(CC(=O)N[C@H]2Cc3cccc(C(=O)O)c3OB2O)CC1 (some centres unmarked) [VNRX-5133, reference compound]",MIC,[1]; Cefepime + compound (8 μg/mL),128 µg/mL
same,MIC,[1]; Meropenem + compound (8 μg/mL),128 µg/mL
same,MIC,[2]; Cefepime + compound (8 μg/mL),32 µg/mL
same,MIC,[2]; Meropenem + compound (8 μg/mL),128 µg/mL
same,IC50,VIM-2,4.4 nM
same,IC50,Ampc,857 nM
same,MIC,[3]; Cefepime + compound (8 μg/mL),64 µg/mL
same,MIC,[3]; Meropenem + compound (8 μg/mL),128 µg/mL
same,MIC,[4]; Cefepime + compound (8 μg/mL),32 µg/mL
same,MIC,[4]; Meropenem + compound (8 μg/mL),128 µg/mL
same,MIC,[5]; Cefepime + compound (8 μg/mL),0.25 µg/mL
same,MIC,[5]; Meropenem + compound (8 μg/mL),0.125 µg/mL
same,IC50,OXA-23,> 10000 nM
same,MIC of the combination with cefepime/meropenem,[6],> 32 µg/mL
same,IC50,VIM-1,33 nM
same,MIC,[7]; Cefepime + compound (8 μg/mL),1 µg/mL
same,MIC,[7]; Meropenem + compound (8 μg/mL),1 µg/mL
same,IC50,CTX-M-15,12.4 nM
same,MIC,[8]; Cefepime + compound (8 μg/mL),16 µg/mL
same,MIC,[8]; Meropenem + compound (8 μg/mL),128 µg/mL
same,IC50,OXA-10,463 nM
same,MIC,[9]; Cefepime + compound (8 μg/mL),1 µg/mL
same,MIC,[9]; Meropenem + compound (8 μg/mL),1 µg/mL

# Source: patent US20250223303A1, “TRICYCLIC BORONIC ACID DERIVATIVE, AND PREPARATION METHOD THEREFOR AND APPLICATION THEREOF” (priority 2021, published 2025)
